Test results as given in ChEMBL document CHEMBL3352522 (Bioorg Med Chem Lett, 2014).
Active and inactive are the calls of the source. No cut-off for these calls is given here.

What was measured:
[1] = target: T1, Peroxisome proliferator-activated receptor alpha (Homo sapiens, UniProt Q07869); test: Activation of human PPARalpha ligand binding domain expressed in COS7 cells by luciferase reporter gene assay; format: cell-based, COS-7
T1 sequence (Q07869 whole entry): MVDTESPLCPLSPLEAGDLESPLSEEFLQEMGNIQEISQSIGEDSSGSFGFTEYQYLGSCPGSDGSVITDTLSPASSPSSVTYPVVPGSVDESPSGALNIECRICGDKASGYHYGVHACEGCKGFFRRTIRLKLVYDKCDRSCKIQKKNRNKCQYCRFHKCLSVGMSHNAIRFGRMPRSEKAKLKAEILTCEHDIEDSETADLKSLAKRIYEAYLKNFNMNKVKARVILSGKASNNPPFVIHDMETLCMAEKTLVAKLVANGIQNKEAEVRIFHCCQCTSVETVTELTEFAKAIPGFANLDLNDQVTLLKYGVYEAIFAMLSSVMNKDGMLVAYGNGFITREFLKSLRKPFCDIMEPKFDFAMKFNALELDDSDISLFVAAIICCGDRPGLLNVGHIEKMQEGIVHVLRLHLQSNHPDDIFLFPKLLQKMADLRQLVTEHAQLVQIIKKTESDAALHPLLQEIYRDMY

[2] = target: T2, Peroxisome proliferator-activated receptor gamma (Homo sapiens) (UniProt P37231); test: Activation of human PPARgamma ligand binding domain expressed in COS7 cells by luciferase reporter gene assay relative to pioglitazone; format: cell-based; parameters: concentration or dose not given beside the values; settings: COS-7
T2 sequence (whole entry): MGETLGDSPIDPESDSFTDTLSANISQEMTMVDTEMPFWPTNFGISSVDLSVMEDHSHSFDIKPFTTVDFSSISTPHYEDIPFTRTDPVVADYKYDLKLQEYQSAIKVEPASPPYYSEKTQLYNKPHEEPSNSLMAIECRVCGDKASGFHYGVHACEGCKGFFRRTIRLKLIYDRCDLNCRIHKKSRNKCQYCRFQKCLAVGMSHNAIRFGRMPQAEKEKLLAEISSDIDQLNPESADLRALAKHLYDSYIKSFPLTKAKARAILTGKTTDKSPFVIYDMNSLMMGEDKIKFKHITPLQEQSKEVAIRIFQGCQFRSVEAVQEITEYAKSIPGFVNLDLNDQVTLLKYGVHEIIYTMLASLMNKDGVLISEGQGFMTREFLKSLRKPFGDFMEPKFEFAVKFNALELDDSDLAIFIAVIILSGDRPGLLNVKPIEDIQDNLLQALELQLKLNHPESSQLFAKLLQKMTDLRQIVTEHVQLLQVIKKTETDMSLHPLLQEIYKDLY

[3] = target: T3, Peroxisome proliferator-activated receptor alpha (Homo sapiens) (UniProt Q07869); test: Activation of human PPARalpha ligand binding domain expressed in COS7 cells by luciferase reporter gene assay relative to GW7647; format: cell-based; parameters: concentration or dose not given beside the values; settings: COS-7
T3 sequence (whole entry): T1 sequence (Q07869 whole entry)

[4] = target: T4, Peroxisome proliferator-activated receptor delta (Homo sapiens) (UniProt Q03181); test: Activation of human PPARbeta ligand binding domain expressed in COS7 cells assessed as residual activity at 3 uM by luciferase reporter gene assay; format: cell-based; settings: COS-7
T4 sequence (whole entry): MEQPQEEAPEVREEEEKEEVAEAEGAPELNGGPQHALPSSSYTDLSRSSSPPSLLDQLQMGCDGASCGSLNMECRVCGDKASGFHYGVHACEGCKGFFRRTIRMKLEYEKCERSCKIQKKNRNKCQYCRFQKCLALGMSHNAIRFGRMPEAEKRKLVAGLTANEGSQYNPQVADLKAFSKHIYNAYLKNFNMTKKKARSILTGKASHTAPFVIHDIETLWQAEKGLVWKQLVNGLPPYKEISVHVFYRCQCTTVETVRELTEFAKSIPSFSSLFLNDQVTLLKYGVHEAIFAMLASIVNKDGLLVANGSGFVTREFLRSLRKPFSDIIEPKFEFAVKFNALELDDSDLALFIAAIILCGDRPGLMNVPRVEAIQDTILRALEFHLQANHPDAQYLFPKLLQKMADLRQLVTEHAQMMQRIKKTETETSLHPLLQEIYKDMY

[5] = target: T5, Peroxisome proliferator-activated receptor gamma (Homo sapiens, UniProt P37231); test: Activation of human PPARgamma ligand binding domain expressed in COS7 cells by luciferase reporter gene assay; format: cell-based, COS-7
T5 sequence (P37231 whole entry): T2 sequence (whole entry)

[6] = target: T4, Peroxisome proliferator-activated receptor delta (Homo sapiens); test: Activation of human PPARbeta ligand binding domain expressed in COS7 cells assessed as residual activity at 10 uM by luciferase reporter gene assay; format: cell-based; settings: COS-7
[7] = target: T3, Peroxisome proliferator-activated receptor alpha (Homo sapiens); test: Activation of human PPARalpha ligand binding domain expressed in COS7 cells assessed as residual activity at 10 uM by luciferase reporter gene assay relative to GW7647; format: cell-based; settings: COS-7
[8] = target: T3, Peroxisome proliferator-activated receptor alpha (Homo sapiens); test: Activation of human PPARalpha ligand binding domain expressed in COS7 cells assessed as residual activity at 6 uM by luciferase reporter gene assay relative to GW7647; format: cell-based; settings: COS-7
[9] = target: T6, Polyunsaturated fatty acid 5-lipoxygenase (Homo sapiens, UniProt P09917); test: Inhibition of 5-LOX in human PMNL cells assessed as reduction in 5-LOX product formation pre-incubated for 15 mins by HPLC based cell-free assay
T6 sequence (P09917 whole entry): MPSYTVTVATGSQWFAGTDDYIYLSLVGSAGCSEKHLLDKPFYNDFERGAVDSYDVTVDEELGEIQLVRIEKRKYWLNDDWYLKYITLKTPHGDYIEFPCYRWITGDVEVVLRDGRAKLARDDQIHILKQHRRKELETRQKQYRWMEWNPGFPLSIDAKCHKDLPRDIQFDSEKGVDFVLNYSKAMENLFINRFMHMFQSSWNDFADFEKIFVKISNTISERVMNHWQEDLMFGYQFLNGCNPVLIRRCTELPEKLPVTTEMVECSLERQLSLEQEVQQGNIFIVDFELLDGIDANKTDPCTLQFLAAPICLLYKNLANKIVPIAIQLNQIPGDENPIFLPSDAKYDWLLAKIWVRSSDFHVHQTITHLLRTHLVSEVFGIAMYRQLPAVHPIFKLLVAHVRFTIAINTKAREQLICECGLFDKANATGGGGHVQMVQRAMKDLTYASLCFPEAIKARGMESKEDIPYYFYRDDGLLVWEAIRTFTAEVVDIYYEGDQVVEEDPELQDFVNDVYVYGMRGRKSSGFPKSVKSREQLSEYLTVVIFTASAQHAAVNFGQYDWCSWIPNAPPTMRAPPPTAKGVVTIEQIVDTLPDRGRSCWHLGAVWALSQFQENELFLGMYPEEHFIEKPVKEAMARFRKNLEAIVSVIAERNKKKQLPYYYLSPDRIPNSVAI

Prostaglandin E synthase = target: T7, Prostaglandin E synthase (Homo sapiens, UniProt O14684); test: Inhibition of mPGES-1 in human A549 cells microsomes assessed as reduction in PGE2 formation by RP-HPLC assay; format: cell-based
T7 sequence (O14684 whole entry): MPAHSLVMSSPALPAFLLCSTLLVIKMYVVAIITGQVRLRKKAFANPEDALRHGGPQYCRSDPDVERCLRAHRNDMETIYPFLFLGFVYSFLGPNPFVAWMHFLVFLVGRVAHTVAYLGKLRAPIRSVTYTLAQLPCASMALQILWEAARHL

[10] = target: T2, Peroxisome proliferator-activated receptor gamma (Homo sapiens); test: Activation of human PPARgamma ligand binding domain expressed in COS7 cells assessed as residual activity at 10 uM by luciferase reporter gene assay relative to pioglitazone; format: cell-based; settings: COS-7
[11] = target: T6, Polyunsaturated fatty acid 5-lipoxygenase; test: Inhibition of 5-LOX in human PMNL cells assessed as reduction in 5-LOX product formation pre-incubated for 15 mins by HPLC method; format: cell-based
[12] = target: T3, Peroxisome proliferator-activated receptor alpha (Homo sapiens); test: Activation of human PPARalpha ligand binding domain expressed in COS7 cells assessed as residual activity at 3 uM by luciferase reporter gene assay relative to GW7647; format: cell-based; settings: COS-7

EC50 [1] [µM] | Activity [2] [%] | Activity [3] [%] | EC50 [5] [µM] | Activity [6] | SMILES | other results
3.9 | 144 | 102 | 3.8 |  | CCCCCCC(Sc1nc(Cl)cc(Nc2nc(-c3ccc(Br)cc3)c(C)s2)n1)C(=O)O (centres undefined) | Activity [4]: inactive
2.9 | 130 | 89.4 | 3.4 | inactive | CCCCCCC(Sc1nc(Cl)cc(Nc2nc(-c3ccc([N+](=O)[O-])cc3)cs2)n1)C(=O)O (centres undefined) | 
5.7 | 94 | 70 | 2.9 | inactive | CCCCCCC(Sc1nc(Cl)cc(Nc2nc(-c3ccc(F)c(F)c3)cs2)n1)C(=O)O (centres undefined) | 
3.6 | 95 | 51 | 3.9 | inactive | CCC(Sc1nc(Cl)cc(Nc2nc(-c3ccc(Cl)cc3)cs2)n1)C(=O)O (centres undefined) | 
 |  |  |  |  | O=C(O)CSc1nc(OCCc2ccccc2)cc(OCCc2ccccc2)n1 | inhibition [7]: inactive; IC50 [5]: 3.7 µM
 | 108 |  | 5.7 | inactive | CCCCCCC(Sc1nc(Cl)cc(Nc2nc(-c3ccccc3)cs2)n1)C(=O)O (centres undefined) | Activity [8]: 55.4%
 |  |  |  |  | CCCCCCC(Sc1nc(Cl)cc(Nc2cccc(C)c2C)n1)C(=O)O (centres undefined) | IC50 [1]: 1000 nM; IC50 [5]: 3.6 µM
 |  |  |  | inactive | CCCCCCC(Sc1nc(Cl)cc(Nc2nc(-c3ccc(C(=O)O)cc3)cs2)n1)C(=O)O (centres undefined) | IC50 [9]: > 10 µM; IC50 (Prostaglandin E synthase): > 10 µM; Activity [7]: inactive; Activity [10]: inactive; IC50 [11]: > 10 µM
 |  |  |  | inactive | O=C(O)CSc1nc(Cl)cc(Nc2nc(-c3ccc(Cl)cc3)cs2)n1 | Activity [7]: 24.7%; Activity [10]: 63%
 |  |  |  |  | CCCCCCC(Sc1nc(Cl)cc(Nc2ccc3ncccc3c2)n1)C(=O)O (centres undefined) | IC50 [1]: 2200 nM; IC50 [5]: 3.5 µM
 | 107 |  | 4.1 |  | CCCCCCC(Sc1nc(Cl)cc(Nc2nc(-c3ccc4c(c3)CCCC4)cs2)n1)C(=O)O (centres undefined) | Activity [12]: 52.9%; Activity [4]: inactive
5.4 | 86 | 229 | 3.7 |  | CCCCCCC(Sc1nc(Cl)cc(Nc2nc3c(s2)CCc2cc(OC)ccc2-3)n1)C(=O)O (centres undefined) | Activity [4]: inactive
6.5 | 136 | 57 | 7.6 | inactive | CCCCC(Sc1nc(Cl)cc(Nc2nc(-c3ccc(Cl)cc3)cs2)n1)C(=O)O (centres undefined) | 
6.6 | 90 | 57 | 6.4 | inactive | CCCCCCC(Sc1nc(Cl)cc(Nc2nc(-c3ccc(Cl)cc3)cs2)n1)C(=O)O (centres undefined) | 
 | 99 |  | 2.3 | inactive | CCCCCCC(Sc1nc(Cl)cc(Nc2nc(-c3ccccc3)c(C)s2)n1)C(=O)O (centres undefined) | Activity [8]: 23%
 | 145 |  | 3.6 | inactive | CCCCCCC(Sc1nc(Cl)cc(Nc2nc(-c3ccc(F)cc3F)cs2)n1)C(=O)O (centres undefined) | Activity [7]: 18%
 |  |  |  |  | CCCCCCC(Sc1nc(Cl)cc(Nc2ccc(-c3ccc(C#N)cc3)cc2)n1)C(=O)O (centres undefined) | IC50 [1]: 190 nM; IC50 [5]: 1.5 µM
 |  |  |  |  | Cc1cccc(Nc2cc(Cl)nc(SC(C(=O)O)c3cccc4ccccc34)n2)c1C (centres undefined) | inhibition [7]: inactive; IC50 [5]: 6.2 µM
8.2 | 139 | 125 | 7.2 | inactive | CCCCCCC(Sc1nc(Cl)cc(Nc2nc(-c3ccc(C)cc3)cs2)n1)C(=O)O (centres undefined) | 
 | 78 |  | 1.3 | inactive | CCCCCCC(Sc1nc(Cl)cc(Nc2nc(-c3ccc4ccccc4c3)cs2)n1)C(=O)O (centres undefined) | Activity [8]: 37%
